According to patent publication US20240158385A1, “NOVEL COMPOUNDS” (Cerevance, Inc., priority 2021, published 2024):

target: T1, human KCNK13 (Homo sapiens, UniProt Q9HB14); experiment: KCNK13 antagonist activity, thallium (Tl+) flux FLIPR assay; format: cell-based; details: not given
T1 construct: expressed in transfected cells
T1 sequence (Q9HB14 1-408): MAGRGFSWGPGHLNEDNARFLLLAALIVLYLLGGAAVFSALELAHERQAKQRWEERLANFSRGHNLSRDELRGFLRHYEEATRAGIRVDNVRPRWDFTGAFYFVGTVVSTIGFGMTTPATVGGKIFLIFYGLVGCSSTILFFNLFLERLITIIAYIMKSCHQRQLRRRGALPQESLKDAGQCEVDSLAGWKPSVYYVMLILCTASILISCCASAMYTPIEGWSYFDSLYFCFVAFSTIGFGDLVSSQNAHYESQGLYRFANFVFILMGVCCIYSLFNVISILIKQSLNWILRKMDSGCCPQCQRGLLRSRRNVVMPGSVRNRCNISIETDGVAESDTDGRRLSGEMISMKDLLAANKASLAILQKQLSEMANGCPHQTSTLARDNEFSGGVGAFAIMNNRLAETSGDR
Protocol: KCNK13 antagonist activity was determined by measuring changes in intracellular Thallium (Tl^+) concentrations using a Tl^+ sensitive fluorescent dye. The changes in fluorescent signal were monitored by Fluorescent Imaging Plate Reader (FLIPR™) technology available from Molecular Devices, LLC, US. KCNK13 mediated increases in intracellular Tl+concentration were readily detected by addition of a thallium sulfate stimulus. 24 hours prior to the assay, human embryonic kidney 293 cells (HEK 293 cells) stably expressing human KCNK13 were seeded in cell culture medium in PDL coated black, clear-bottom 384-well plates (commercially available from Corning Inc., 356663) and grown overnight at 37° C., 5% CO2. On the day of the assay, cell culture media was removed and cells were loaded with potassium dye (commercially sold by Molecular Devices, LLC, US, R8222) for 1 hour at room temperature in the dark. Test compounds (at 10 point half log concentration response curves from […]) were added to cells for 15 minutes prior to the addition of thallium sulfate to all wells. The IC50 values were determined from ten point concentration response curves. Curves were generated using the average of two wells for each data point.

With `Nc1nonc1-c1nc2cccnc2n1Cc1ccc(Cl)nc1` [Example 23, 4-[3-[(6-chloropyridin-3-yl)methyl]imidazo[4,5-b]pyridin-2-yl]-1,2,5-oxadiazol-3-amine] as the compound, how does the IC50 read?
Its IC50 is less than 50 nM.

How did the IC50 turn out when `Cc1nonc1-c1nc2cccnc2n1Cc1ccc(Cl)nc1` [Example 24, 3-[3-[(6-chloropyridin-3-yl)methyl]imidazo[4,5-b]pyridin-2-yl]-4-methyl-1,2,5-oxadiazole] was run?
The IC50 was less than 100 nM.

Which IC50 does the source give for `Nc1nonc1-c1nc2cc(F)cnc2n1Cc1ccc(Cl)nc1` [Example 29, 4-[3-[(6-chloropyridin-3-yl)methyl]-6-fluoro-imidazo[4,5-b]pyridin-2-yl]-1,2,5-oxadiazol-3-amine] here?
The IC50 was less than 50 nM.

For `Cc1nonc1-c1nc2c(F)cccc2n1Cc1ccc(Cl)nc1` [Example 39, 3-[1-[(6-chloropyridin-3-yl)methyl]-4-fluoro-benzimidazol-2-yl]-4-methyl-1,2,5-oxadiazole], which IC50 is on record?
The IC50 was less than 200 nM.

same assay, conditions: HEK 293 cells stably expressing human KCNK13; Tl+ sensitive dye, FLIPR; compounds 15 minutes prior to thallium sulfate; 10 point half log curves from 10 PM; read-out: hKCNK13 IC50

Which IC50 does the source give for `Nc1nonc1-c1nc2cccnc2n1Cc1ccc(C(F)(F)F)nc1` [Example 19, 4-[3-[[6-(trifluoromethyl)pyridin-3-yl]methyl]imidazo[4,5-b]pyridin-2-yl]-1,2,5-oxadiazol-3-amine] here?
Its IC50 is less than 500 nM.

`Cc1nonc1-c1nc2cccnc2n1Cc1cccnn1` [Example 20, 3-methyl-4-[3-(pyridazin-3-ylmethyl)imidazo[4,5-b]pyridin-2-yl]-1,2,5-oxadiazole] was tested. Which IC50 did it give?
Its IC50 is less than 1000 nM.

Which IC50 does the source give for `Nc1nonc1-c1nc2c(F)ccc(F)c2n1Cc1cccnc1` [Example 22, 4-[4,7-difluoro-1-(pyridin-3-ylmethyl)benzimidazol-2-yl]-1,2,5-oxadiazol-3-amine] here?
The IC50 was less than 50 nM.

Which IC50 does the source give for `Cc1nonc1-c1nc2cc(F)cc(F)c2n1Cc1cccnc1` [Example 27, 3-[5,7-difluoro-1-(pyridin-3-ylmethyl)benzimidazol-2-yl]-4-methyl-1,2,5-oxadiazole] here?
Its IC50 is less than 50 nM.

With `N#Cc1ncc(Cn2c(-c3nonc3N)nc3c(F)ccc(F)c32)cn1` [Example 28, 5-[[2-(4-amino-1,2,5-oxadiazol-3-yl)-4,7-difluoro-benzimidazol-1-yl]methyl]pyrimidine-2-carbonitrile] as the compound, how does the IC50 read?
The IC50 was less than 50 nM.

For `Nc1nonc1-c1nc2cc(Br)ccc2n1Cc1cccnc1` [Example 33, 4-[5-bromo-1-(pyridin-3-ylmethyl)benzimidazol-2-yl]-1,2,5-oxadiazol-3-amine], which IC50 is on record?
The IC50 was less than 50 nM.

With `CN(C)c1ccc2c(c1)nc(-c1nonc1N)n2Cc1cccnc1` [Example 34, 4-[5-(dimethylamino)-1-(pyridin-3-ylmethyl)benzimidazol-2-yl]-1,2,5-oxadiazol-3-amine] as the compound, how does the IC50 read?
Its IC50 is less than 1000 nM.

`N#Cc1cnc(Cn2c(-c3nonc3N)nc3cccc(F)c32)cn1` [Example 35, 5-[[2-(4-amino-1,2,5-oxadiazol-3-yl)-7-fluoro-benzimidazol-1-yl]methyl]pyrazine-2-carbonitrile] was tested. Which IC50 did it give?
The IC50 was less than 50 nM.

`N#Cc1cnc(Cn2c(-c3nonc3N)nc3c(F)cccc32)cn1` [Example 36, 5-[[2-(4-amino-1,2,5-oxadiazol-3-yl)-4-fluoro-benzimidazol-1-yl]methyl]pyrazine-2-carbonitrile] was tested. Which IC50 did it give?
Its IC50 is less than 100 nM.

For `Cc1nonc1-c1nc2ccccc2n1Cc1ccc(C#N)nc1` [Example 37, 5-[[2-(4-methyl-1,2,5-oxadiazol-3-yl)benzimidazol-1-yl]methyl]pyridine-2-carbonitrile], which IC50 is on record?
Its IC50 is less than 50 nM.

How did the IC50 turn out when `Cc1nonc1-c1nc2cccc(F)c2n1Cc1ccc(Cl)nc1` [Example 38, 3-[1-[(6-chloropyridin-3-yl)methyl]-7-fluoro-benzimidazol-2-yl]-4-methyl-1,2,5-oxadiazole] was run?
Its IC50 is less than 50 nM.

`Cc1nonc1-c1nc2c(F)cccc2n1Cc1ccc(C#N)nc1` [Example 40, 5-[[4-fluoro-2-(4-methyl-1,2,5-oxadiazol-3-yl)benzimidazol-1-yl]methyl]pyridine-2-carbonitrile] was tested. Which IC50 did it give?
Its IC50 is less than 100 nM.

`Cc1nonc1-c1nc2cccc(F)c2n1Cc1cnc(C#N)cn1` [Example 41, 5-[[7-fluoro-2-(4-methyl-1,2,5-oxadiazol-3-yl)benzimidazol-1-yl]methyl]pyrazine-2-carbonitrile] was tested. Which IC50 did it give?
Its IC50 is less than 100 nM.

For `Cc1nonc1-c1nc2c(F)cccc2n1Cc1cnc(C#N)cn1` [Example 42, 5-[[4-fluoro-2-(4-methyl-1,2,5-oxadiazol-3-yl)benzimidazol-1-yl]methyl]pyrazine-2-carbonitrile], which IC50 is on record?
Its IC50 is less than 1000 nM.

For `COc1ccc(Cn2c(-c3nonc3C)nc3cccc(F)c32)cn1` [Example 43, 3-[7-fluoro-1-[(6-methoxypyridin-3-yl)methyl]benzimidazol-2-yl]-4-methyl-1,2,5-oxadiazole], which IC50 is on record?
Its IC50 is less than 1000 nM.

Which IC50 does the source give for `Cc1nonc1-c1nc2cccc(F)c2n1Cc1cnc(C#N)nc1` [Example 44, 5-[[7-fluoro-2-(4-methyl-1,2,5-oxadiazol-3-yl)benzimidazol-1-yl]methyl]pyrimidine-2-carbonitrile] here?
The IC50 was less than 50 nM.

With `Cc1nonc1-c1nc2c(F)cccc2n1Cc1cnc(C#N)nc1` [Example 45, 5-[[4-fluoro-2-(4-methyl-1,2,5-oxadiazol-3-yl)benzimidazol-1-yl]methyl]pyrimidine-2-carbonitrile] as the compound, how does the IC50 read?
Its IC50 is less than 100 nM.

`Cc1nonc1-c1nc2cccc(F)c2n1Cc1ccc(C#N)nn1` [Example 46, 6-[[7-fluoro-2-(4-methyl-1,2,5-oxadiazol-3-yl)benzimidazol-1-yl]methyl]pyridazine-3-carbonitrile] was tested. Which IC50 did it give?
Its IC50 is less than 100 nM.

For `Cc1nonc1-c1nc2c(F)cccc2n1Cc1ccc(C#N)nn1` [Example 47, 6-[[4-fluoro-2-(4-methyl-1,2,5-oxadiazol-3-yl)benzimidazol-1-yl]methyl]pyridazine-3-carbonitrile], which IC50 is on record?
The IC50 was less than 200 nM.

For `CCOc1ccc(Cn2c(-c3nonc3C)nc3c(F)cccc32)cn1` [Example 48, 3-[1-[(6-ethoxypyridin-3-yl)methyl]-4-fluoro-benzimidazol-2-yl]-4-methyl-1,2,5-oxadiazole], which IC50 is on record?
The IC50 was less than 1000 nM.

How did the IC50 turn out when `Cc1nonc1-c1nc2cccnc2n1Cc1ccc(C#N)nc1` [Example 50, 5-[[2-(4-methyl-1,2,5-oxadiazol-3-yl)imidazo[4,5-b]pyridin-3-yl]methyl]pyridine-2-carbonitrile] was run?
Its IC50 is less than 100 nM.

With `N#Cc1ccc(Cn2c(-c3nonc3N)nc3cccnc32)cn1` [Example 51, 5-[[2-(4-amino-1,2,5-oxadiazol-3-yl)imidazo[4,5-b]pyridin-3-yl]methyl]pyridine-2-carbonitrile] as the compound, how does the IC50 read?
The IC50 was less than 500 nM.

Which IC50 does the source give for `Cc1nonc1-c1nc2cccc(F)c2n1Cc1ccc(C#N)nc1` [Example 52, 5-[[7-fluoro-2-(4-methyl-1,2,5-oxadiazol-3-yl)benzimidazol-1-yl]methyl]pyridine-2-carbonitrile] here?
Its IC50 is less than 100 nM.

`COc1ccc(Cn2c(-c3nonc3C)nc3ccccc32)cn1` [Example 53, 3-[1-[(6-methoxypyridin-3-yl)methyl]benzimidazol-2-yl]-4-methyl-1,2,5-oxadiazole] was tested. Which IC50 did it give?
Its IC50 is less than 100 nM.

For `Cc1nonc1-c1nc2ccccc2n1Cc1ccc(O)nc1` [Example 54, 5-[[2-(4-methyl-1,2,5-oxadiazol-3-yl)benzimidazol-1-yl]methyl]pyridin-2-ol], which IC50 is on record?
The IC50 was less than 500 nM.

Which IC50 does the source give for `Cc1nonc1-c1nc2ccc(F)cc2n1Cc1ccc(C#N)nc1` [Example 55, 5-[[6-fluoro-2-(4-methyl-1,2,5-oxadiazol-3-yl)benzimidazol-1-yl]methyl]pyridine-2-carbonitrile] here?
The IC50 was less than 100 nM.

`Cc1nonc1-c1nc2ccc(F)c(F)c2n1Cc1cccnc1` [Example 56, 3-[6,7-difluoro-1-(pyridin-3-ylmethyl)benzimidazol-2-yl]-4-methyl-1,2,5-oxadiazole] was tested. Which IC50 did it give?
The IC50 was less than 100 nM.
